From the Kinase Knowledgebase extract (Sharma et al. 2016)

Target: EGFR (human) (UniProt P00533)
Sequence (P00533 whole entry, looked up): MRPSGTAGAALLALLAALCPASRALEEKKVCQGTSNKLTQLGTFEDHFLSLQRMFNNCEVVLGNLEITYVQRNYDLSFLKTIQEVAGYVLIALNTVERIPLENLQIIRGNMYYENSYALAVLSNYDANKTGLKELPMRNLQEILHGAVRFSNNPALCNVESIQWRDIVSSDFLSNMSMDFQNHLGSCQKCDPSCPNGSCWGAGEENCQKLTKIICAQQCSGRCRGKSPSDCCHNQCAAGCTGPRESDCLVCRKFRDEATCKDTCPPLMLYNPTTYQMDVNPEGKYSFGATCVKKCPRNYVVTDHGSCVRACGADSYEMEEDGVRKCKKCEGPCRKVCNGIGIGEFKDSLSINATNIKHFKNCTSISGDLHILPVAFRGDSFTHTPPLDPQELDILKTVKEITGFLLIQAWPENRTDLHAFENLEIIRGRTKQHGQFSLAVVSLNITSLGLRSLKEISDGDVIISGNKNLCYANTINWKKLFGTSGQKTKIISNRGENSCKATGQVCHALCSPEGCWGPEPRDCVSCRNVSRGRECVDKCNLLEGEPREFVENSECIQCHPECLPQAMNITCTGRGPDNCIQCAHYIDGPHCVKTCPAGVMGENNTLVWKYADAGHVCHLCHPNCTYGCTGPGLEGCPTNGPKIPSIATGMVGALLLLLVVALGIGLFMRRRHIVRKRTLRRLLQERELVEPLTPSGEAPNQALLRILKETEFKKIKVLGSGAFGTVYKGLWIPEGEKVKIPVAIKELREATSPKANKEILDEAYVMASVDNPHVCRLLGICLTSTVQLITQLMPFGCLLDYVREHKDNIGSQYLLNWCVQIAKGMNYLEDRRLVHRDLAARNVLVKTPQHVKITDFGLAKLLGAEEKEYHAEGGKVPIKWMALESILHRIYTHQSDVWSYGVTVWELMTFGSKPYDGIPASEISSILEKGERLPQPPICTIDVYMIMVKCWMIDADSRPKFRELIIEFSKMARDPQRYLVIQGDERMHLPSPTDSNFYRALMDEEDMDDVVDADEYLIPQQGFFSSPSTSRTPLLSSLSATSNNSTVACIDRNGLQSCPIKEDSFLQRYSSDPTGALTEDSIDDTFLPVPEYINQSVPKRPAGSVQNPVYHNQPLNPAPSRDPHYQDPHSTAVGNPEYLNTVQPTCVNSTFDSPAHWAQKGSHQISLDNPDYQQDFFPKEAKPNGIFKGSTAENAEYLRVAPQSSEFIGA

Row | IC50 | SMILES
1 | < 100 nM | CC(C)c1nc(-c2cccc(NS(=O)(=O)c3c(F)cccc3F)c2)c(-c2ccnc(Nc3ccc(N4CCN(CCO)CC4)nc3)n2)s1
2 | < 100 nM | COc1cc(N2CCC(N3CCN(CCS(C)(=O)=O)CC3)CC2)ccc1Nc1nccc(-c2sc(C(C)C)nc2-c2cccc(NS(=O)(=O)c3c(F)cccc3F)c2)n1
3 | 100 to 1000 nM | CC(C)c1nc(-c2cccc(NS(=O)(=O)c3ccccc3)c2)c(-c2ccnc(Nc3ccc(N4CCOCC4)nc3)n2)s1
4 | 100 to 1000 nM | O=S(=O)(Nc1cc(-c2nc(N3CCOCC3)sc2-c2ccnc(Nc3ccc(N4CCOCC4)nc3)n2)ccc1F)c1c(F)cccc1F
5 | 100 to 1000 nM | CC(C)c1nc(-c2cccc(NS(=O)(=O)c3c(F)cccc3F)c2)c(-c2ccnc(Nc3ccc(N4CC[C@@H](O)C4)nc3)n2)s1
6 | 100 to 1000 nM | CC(C)c1nc(-c2ccc(F)c(NS(=O)(=O)c3ccccc3F)c2)c(-c2ccnc(Nc3ccc(N4CCN(CCS(C)(=O)=O)CC4)c(F)c3)n2)s1
7 | 100 to 1000 nM | CCNc1nc(-c2ccc(F)c(NS(=O)(=O)c3c(F)cccc3F)c2)c(-c2ccnc(Nc3ccc(N4CCOCC4)nc3)n2)s1
8 | < 100 nM | CCNc1nc(-c2cccc(NS(=O)(=O)c3c(F)cccc3F)c2)c(-c2ccnc(Nc3cc(C)c(N4CCN(CCS(C)(=O)=O)CC4)cc3OC)n2)s1
9 | < 100 nM | COc1cc(N2CCN(CCS(C)(=O)=O)CC2)c(C)cc1Nc1nccc(-c2sc(C(C)C)nc2-c2cccc(NS(=O)(=O)c3c(F)cccc3F)c2)n1
10 | < 100 nM | CC(=O)N1CCN(c2ccc(Nc3nccc(-c4sc(C(C)C)nc4-c4cccc(NS(=O)(=O)c5ccccc5F)c4)n3)cn2)CC1
11 | 100 to 1000 nM | CS(=O)(=O)CCN1CCN(c2ccc(Nc3nccc(-c4oc(N5CCCC5)nc4-c4cccc(NS(=O)(=O)c5c(F)cccc5F)c4F)n3)cc2F)CC1
12 | 100 to 1000 nM | COc1cc(N2CCN(CCS(C)(=O)=O)CC2)c(C)cc1Nc1nccc(-c2oc(N3CCCC3)nc2-c2cccc(NS(=O)(=O)c3c(F)cccc3F)c2)n1
13 | 100 to 1000 nM | CC(=O)N1CCc2cc(Nc3nccc(-c4sc(C(C)C)nc4-c4cccc(NS(=O)(=O)c5ccccc5)c4)n3)ccc21
14 | 100 to 1000 nM | CC(C)c1nc(-c2cccc(NS(=O)(=O)c3c(F)cccc3F)c2)c(-c2ccnc(Nc3ccc(N4CCOCC4)c(C(=O)O)c3)n2)s1
15 | < 100 nM | COc1cc(N2CCN(CCS(C)(=O)=O)CC2)c(C)cc1Nc1nccc(-c2sc(C(C)C)nc2-c2cccc(NS(=O)(=O)c3cccs3)c2)n1
16 | 100 to 1000 nM | CC(C)c1nc(-c2cccc(NS(=O)(=O)c3ccccc3)c2)c(-c2ccnc(Nc3ccc(CC4CCN(CCS(C)(=O)=O)CC4)c(F)c3)n2)s1
17 | 100 to 1000 nM | COc1cc(N2CCN(CCS(C)(=O)=O)CC2)c(C)cc1Nc1nccc(-c2sc(C(C)C)nc2-c2cc(NS(=O)(=O)c3c(F)cccc3F)ccc2F)n1
18 | 100 to 1000 nM | CC(C)c1nc(-c2cccc(NS(=O)(=O)c3c(F)cccc3F)c2)c(-c2ccnc(Nc3ccc(N4CCOCC4)nc3)n2)s1
19 | < 100 nM | COc1cc(N2CCN(CCS(C)(=O)=O)CC2)c(C)cc1Nc1nccc(-c2sc(C)nc2-c2cccc(NS(=O)(=O)c3c(F)cccc3F)c2)n1
20 | 100 to 1000 nM | CC(C)c1nc(-c2cccc(NS(=O)(=O)c3c(F)cccc3F)c2)c(-c2ccnc(Nc3ccc(OC4CCN(CCS(C)(=O)=O)CC4)c(F)c3)n2)s1
21 | 100 to 1000 nM | CC(=O)N1CCN(c2ccc(Nc3nccc(-c4sc(C(C)C)nc4-c4cccc(NS(=O)(=O)c5cc(F)ccc5F)c4)n3)cn2)CC1

Row | SMILES | IC50
22 | COc1cc(N2CCN(CCF)CC2)ccc1Nc1nccc(-c2sc(C(C)C)nc2-c2cccc(NS(=O)(=O)c3c(F)cccc3F)c2)n1 | 100 to 1000 nM
